According to patent US6939888B2, “1-H-3-arylpirrolidine-2,4-dione derivatives” (Bayer Aktiengesellschaft, priority 1994, dated 2005):

What was measured:
[1] = system: caterpillars of the diamond-back moth (Plutella maculipennis); experiment: Plutella test (cabbage leaf dip); type: in vivo; details: after 7 days; concentration of active compound 0.001%; cabbage leaves (Brassica olearacea) dipped
Method: Plutella Test [table] To produce a suitable preparation of active compound, 1 part by weight of active compound is mixed with the stated amount of solvent and the stated amount of emulsifier, and the concentrate is diluted with water to the desired concentration. Cabbage leaves (Brassica olearacea) are treated by being dipped into the preparation of active compound of the desired concentration and are infested with caterpillars of the diamond-back moth (Plutella maculipennis) while the leaves are still moist. After the specified periods of time, the destruction in % is determined. 100% means that all the caterpillars have been killed; 0% means that none of the caterpillars have been killed.

[2] = system: greenhouse red spider mite (Tetranychus urticae); experiment: Tetranychus test (OP resistant), sprayed bean plants; type: in vivo; details: after 7 days; concentration of active compound 0.00016%; bean plants (Phaseolus vulgaris) sprayed, all development stages
Method: Tetranychus Test (OP Resistant)
To produce a suitable preparation of active compound, 1 part by weight of active compound is mixed with the stated amount of solvent and the stated amount of emulsifier, and the concentrate is diluted with emulsifier-containing water to the desired concentration.
Bean plants (Phaseolus vulgaris) which are severely infested with all development stages of the greenhouse red spider mite (Tetranychus urticae) are sprayed with a preparation of active compound of the desired concentration.
After the specified periods of time, the destruction in % is determined. 100% means that all the spider mites have been killed; 0% means that none of the spider mites have been killed.

| SMILES | destruction rate [1] | destruction rate [2] |
| --- | --- | --- |
| CC(=O)OC1=C(c2c(C)cc(C)cc2C)C(=O)NC12CCCCC2 [(B)] | 10% |  |
| CC(C)C1(C)NC(=O)C(c2ccc(Cl)cc2Cl)=C1OC(=O)C(C)(C)C (stereo not drawn) [(D)] |  | no destruction |
| CCOC(=O)OC1=C(c2ccc(Cl)cc2Cl)C(=O)NC1(C)C(C)C (stereo not drawn) [(E)] |  | no destruction |
